The source made the active and inactive calls.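 Rule for the calls: active = EC50 at or below 10 µM; inactive = EC50 above 10 µM.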
target: Nuclear hormone receptor DAF-12 (Heterodera glycines); experiment: H. glycines DAF-12 receptor agonist potency, dose response, cell-based, luminescence, HEK293 (AID 743059); settings: HEK293 hgDAF-12 reporter, luciferase luminescence;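 note: agonist potency for compounds that raise hgDAF-12 reporter luminescence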

EC50, inactive:
Cc1ccc(N/N=C(\C#N)C(=N)N2CCCCCC2)cc1 > 67.5 µM, C/C(=N\NC(=O)OC(C)(C)C)c1ccc[nH]1 > 67.6 µM, Cn1c(SCc2ccccc2F)nc2cccnc21 > 67.5 µM, Clc1ccc(CSc2nc3ccncc3[nH]2)cc1 > 67.5 µM, Clc1cccc(-c2nnc(-c3ccccc3)o2)c1 > 67.5 µM, CN(C)c1ccc2c(=O)c3ccccc3oc2n1 > 67.6 µM, CCc1ccc(C2CC(c3ccco3)=NN2S(C)(=O)=O)cc1 (centres undefined) > 67.5 µM, Cc1ccc2nc(C)/c(=N\O)c(C)nc2c1 > 67.6 µM, Cn1c(NC(=O)CCc2ccccc2)cc(=O)n(C)c1=O > 67.5 µM, Nc1ccc2c(c1)Cc1cc(N)c(Cl)cc1-2 > 67.4 µM, CC(C)C[C@H](NC(=O)OCC1c2ccccc2-c2ccccc21)C(=O)O > 67.5 µM, O=C1/C(=C\c2cccs2)Sc2ccc3ccccc3c21 > 67.5 µM, Cc1ccnc(NC(=O)/C=C/c2cccs2)c1 > 67.6 µM, C=CCN1C(=O)[C@@H](CC(=O)N2CCSCC2)[C@]2(C(=O)OC)CCCCC=C12 > 67.5 µM, C(=C\n1nnc2ccccc21)/c1ccccn1 > 67.5 µM, Cc1ccc(NC(=S)NC(=O)C2CCCC2)c(Br)c1 > 67.5 µM, Cc1ccc2oc(-c3cccc(N)c3)nc2c1 > 67.6 µM, c1ccc(N=Nc2ccc(C3=NCCO3)cc2)cc1 > 67.6 µM, c1ccc(Nc2nc(-c3ccccc3)ns2)cc1 > 67.6 µM, OC(c1ccccc1)c1nc(-c2cnc3ccccc3c2)cs1 (centres undefined) > 67.6 µM, Cc1cc2nn(-c3ccc(F)cc3)nc2cc1N > 67.5 µM, COc1ccc(Nc2nccc(-c3cccc(N)c3)n2)cc1 > 67.5 µM, Cn1c(O)c(N=NC(=O)c2ccco2)c2ccccc21 > 67.5 µM, CCOC(=O)c1cnc(SCCc2ccccc2)nc1N > 67.5 µM, Cc1ccc2c(c1)N=C(c1ccccc1)CC(C(Cl)Cl)=N2 > 67.5 µM, CC(C)Oc1cc(O)c2c(=O)c(-c3ccc(O)cc3)coc2c1 > 67.6 µM, Cc1nc(N)sc1N=Nc1ccc(Br)cc1 > 67.5 µM, CCc1cc(C(=O)Nc2ncccc2O)sc1C > 67.5 µM, Cc1cc(-c2ccncc2)n2ncc(-c3ccccc3)c2n1 > 67.6 µM, CCS(=O)(=O)Nc1cc(-c2nc3cccnc3s2)ccc1C > 67.5 µM, Cc1cc(NC(=O)CSc2nc3c(cc2C#N)CCC3)no1 > 67.6 µM, CCOC(=O)c1c(C)[nH]c(N=Nc2cccc(OC)c2)c1C > 67.5 µM, CC(=Nc1ccccc1)c1sc2ccccc2c1O > 67.6 µM, Clc1ccc(Nc2ccc3ccccc3n2)cc1 > 67.5 µM, c1ccc(CN=C2Nc3ccccc3CS2)nc1 > 67.5 µM, Cc1ccc(N/C=C(/C#N)c2ccsc2)cc1C > 67.5 µM, COC(=O)C1C(=O)c2c([nH]c(C(=O)OC3CCCCC3)c2C)CC1C (centres undefined) > 67.5 µM, Clc1ccc(-c2cn3cc(Cl)ccc3n2)cc1 > 67.6 µM, CC(=Nc1cccc(C)c1)c1sc2ccccc2c1O > 67.6 µM

Reference: PubChem BioAssay AID743059 (The Scripps Research Institute Molecular Screening Center, 2013)
